In experiment [1] the test system is PBP4(S75C). Description: X-ray crystallography, ligand soaking of PBP4(S75C) crystals. Type of experiment: binding, Staphylococcus aureus. The settings on record: soak with 1 mM ampicillin and 8 mM pentapeptide, 40–60 min; 1.86 Å.
Procedure: PBP4(S75C) was crystallized using the sitting drop vapor diffusion method with streak seeding. Protein at 25–35 mg mL^−1 was added to precipitant solution (8 mM zinc chloride, 80 mM sodium acetate pH 5, 100 mM sodium fluoride, and 16% polyethylene glycol 6000) in a 1:1 (v/v) ratio and incubated at 23°C. Immediately after mixing the protein and precipitant solution, the drops were streak-seeded with a housecat whisker that had been swished through a drop containing PBP4(S75C) crystals. […] Crystals were then promptly harvested and stored in liquid nitrogen.
Data collection was performed under cryogenic temperatures (100 K) at the Advanced Light Source synchrotron (U.C. Berkeley) on beamline 5.0.2. Data from one crystal that diffracted to 1.9 Å resolution were processed using Xia2 (Winter et al., [2013]) and XDS (Kabsch, [2010]) with a space group of C121 and merged with Aimless in the CCP4 software package (Winn et al., [2011]). Phaser (McCoy et al., [2007]) was employed to solve the structure by molecular replacement using PDB ID 5TXI as the starting model. The Phenix suite of programs was used for model generation and refinement (Adams et al., [2010]). Briefly, AutoBuild was used with several iterative rounds of manual manipulation of the model with Coot (Emsley et al., [2010]) followed by refinement with Phenix.refine with TLS being used in the later stages of refinement.
Experiment [2] concerns PBP4. Nature of the experiment: X-ray crystallography, ligand soaking of PBP4 crystals. Type of experiment: binding, Staphylococcus aureus. The settings on record: soaking with ampicillin and synthetic pentapeptide stem.
Experiment [3] concerns S. aureus laboratory mutant 27s. The settings on record: deletion of PBP4 in mutant 27s; ref Leski and Tomasz, 2005; cited from earlier work. An excerpt:
S. aureus PBP4 is an unusual class C PBP showing TPase activity in vivo (Loskill et al., [2014]; Hamilton et al., [2017]) and in vitro (Qiao et al., [2014]; Srisuknimit et al., [2017]) in addition to its expected CPase activity.

Experiment [4] relates to ceftobiprole-resistant Staphylococcus aureus strain (CRB). The settings on record: pbp4 mutations giving E183A and F241R; ref Banerjee et al., 2010; cited from earlier work. The text has this: The replacement of E183 by an alanine disrupts the Van-der-Waals interaction between this residue and ...
For experiment [5], the system named is PBP4(S75C). Nature of the experiment: PBP4(S75C) acylation by imipenem, native mass spectrometry. Type of experiment: binding, Staphylococcus aureus. The settings on record: 1.25 mM imipenem, ~23°C, 30 min, pH 6; MS. As to the method: For mass spectrometry analysis, samples were thawed and diluted 500 times in 5% acetonitrile and 0.1% formic acid. 5 μL of each sample was injected onto a 5-mm C4 column connected to a Waters Xevo GS-2 QTof mass spectrometer via a NanoAquity UPLC system. Samples were eluted in a 2-min gradient from 5 to 100% acetonitrile at a flow rate of 20 μL min^−1. Mass spectra (Supplementary Figure S3) were summed and peak masses deconvoluted using Waters' MassLynx software (V4.1).

Experiment [6] relates to PBP4(S75C). Nature of the experiment: Liquid-state NMR titration (15N-BEST-TROSY chemical shift perturbation). The format is binding, Staphylococcus aureus. The settings on record: lactoyl-tetrapeptide up to 52 molar equivalents, 326 μM protein; 25°C, 50 mM potassium phosphate pH 6.5.
Procedure: NMR Titration Experiments
Interaction studies with ^15N-labeled PBP4(S75C) and different substrates were monitored by superimposition of ^15N-BEST-TROSY spectra at 25°C for different substrate-to-protein ratio. Synthetic peptide stems and peptidoglycan fragments were extensively dialyzed against water using a Spectra/PorTM dialysis membrane with a 100–500 Da cutoff (Spectrum Laboratories, Inc.) and lyophilized before preparation of a few-mM stock solution in the protein buffer, with 50 mM potassium phosphate at pH 6.5. A 326-μM solution of PBP4(S75C) was titrated with 2, 8, 22, and 52 molar equivalents of tetrapeptide. […] CcpNmr was used to monitor protein chemical shift perturbations (CSP) for every assigned amide resonance by superimposition of the ^15N-BEST-TROSY spectra. CSPs (Δδ) were calculated on a per-residue basis for the highest substrate-to-protein ratio as follows:
where γN and γH are the ^1H and ^15N gyromagnetic ratios, respectively, and δ^XPBP4(S75C):sub , and δ^XPBP4(S75C) are the protein resonance chemical shift value in the presence and absence, respectively, of the substrate at the highest ratio.
The following substrates were added at 25 °C on 150 -µM PBP4(S75C) solution
in 50 mM potassium phosphate buffer, pH 6.5: (A) Tetrapeptide at approximately 52 molar […]
overlapped residues, for which CSPs could not be determined.
Experiment [7] concerns PBP4. The settings on record: 10 μM PBP4, 10 mM Tris/HCl pH 7.5, 10 mM MgCl2, 0.1% Triton X-100, 37°C overnight; HPLC.
Procedure: Assays were carried out in a final volume of 50 μL containing 10 mM Tris/HCl at pH 7.5, 10 mM MgCl2, 0.1% Triton X-100, and 10 μM PBP4 or PBP4(S75C). A ~5 mg mL^−1 suspension of PG or 25 μL of a ~5 mg mL^−1 solution of muropeptides were added and the reaction mixture was incubated at 37°C overnight. The enzymatic reaction was stopped by boiling the samples for 10 min. Muropeptides were reduced and analyzed by HPLC as described (Boneca et al., [1997]).
In experiment [8] the target is 15N-labeled PBP4(S75C) from Staphylococcus aureus, His-tag not cleaved (NMR sample) (S. aureus). Nature of the experiment: NMR titration; 15N-BEST-TROSY spectra at 25°C; 326 μM 15N-labeled PBP4(S75C) titrated with 2, 8, 22 and 52 molar equivalents of unlabeled tetrapeptide; 50 mM potassium phosphate pH 6.5.

In general, Kd refers to the concentration at which binding is half-saturated.

“Also recorded” adds a separate entry of the source. Non-standard residues stand in square brackets, D forms with d. No end group written: not given here. Where only a bound is given, the exact number is not on record here.

On to `CC1(C)S[C@@H]2[C@H](NC(=O)[C@H](N)c3ccccc3)C(=O)N2[C@H]1C(=O)O` [ampicillin], for which, in the experiment on PBP4(S75C) [1], the “electron density of soaked ligand, PBP4(S75C) crystals” value is reported as “unable to identify electron density”. Besides, the “electron density of soaked ligand, PBP4 crystals” value in the experiment with PBP4 [2] is given as “unable to identify electron density”. For the molecule `CO/N=C(\C(=O)N[C@@H]1C(=O)N2C(C(=O)O)=CCS[C@H]12)c1csc(N)n1` [ceftizoxime], in experiment [3], the “susceptibility on deletion of PBP4” value is “increase in ceftizoxime susceptibility”. Consider `Nc1nc(/C(=N/O)C(=O)N[C@@H]2C(=O)N3C(C(=O)O)=C(/C=C4\CCN([C@@H]5CCNC5)C4=O)CS[C@H]23)ns1` [ceftobiprole], for which the “resistance of CRB strain” value in experiment [4] is given as “resistant”. Take `C[C@@H](O)[C@H]1C(=O)N2C(C(=O)O)=C(SCCN=CN)C[C@H]12` [imipenem]: the “acylation of PBP4(S75C)” value with PBP4(S75C) [5] is reported as “binds covalently to PBP4S75C, to form a stable acylenzyme; also recorded: sensitive to acylation”. On to “HO-D-Lac-L-Ala-D-iGln-L-Lys(Gly)5-D-Ala-COOH [lactoyl-tetrapeptide]”, for which the “chemical shift perturbations for the amide resonances of PBP4(S75C)” value in the experiment on PBP4(S75C) [6] is listed as “did not create any significant chemical shift perturbations”. “HO-D-Lac-L-Ala-D-iGln-[L-Lys(Gly)5]-D-Ala-D-Ala-COOH [pentapeptide, synthetic branched lactoyl-peptide resembling the native S. aureus PG stem]”: the “electron density of soaked ligand, PBP4(S75C) crystals” value in the experiment with PBP4(S75C) [1] is recorded as “unable to identify electron density”. In addition, the “electron density of soaked ligand, PBP4 crystals” value in the experiment on PBP4 [2] was “unable to identify electron density”. Take “disaccharide pentapeptide(Gly5) [disaccharide pentapeptide(Gly5) (peak5)]”: the “DD-CPase activity of PBP4: conversion of monomeric muropeptide” value with PBP4 [7] is on record as “nearly quantitatively converted to disaccharide tetrapeptide(Gly5) (peak A)”.

B1: HO-D-Lac-L-Ala-D-iGln-L-Lys(Gly)5-D-Ala-COOH tetrapeptide (peptide)
chain 1: {HO‑D‑Lac}-A[diGln]K[dA]-OH
chain 2: GGGGG
modifications: not fully specified (some residues); also: chain 2 (Gly)5 attached to Lys side chain
B1: the equilibrium dissociation constant (Kd) in experiment [8] is over 110 mM.

The record behind these values is PMC6346638, “Recognition of Peptidoglycan Fragments by the Transpeptidase PBP4 From Staphylococcus aureus” (Frontiers in Microbiology, 2019).
